# Experimental data taken from patent US8076487B2, “Pyridone derivative and herbicide” (Kumiai Chemical Industry Co., Ltd., priority 2006, dated 2011).
# How the values were obtained:
# Type in all cases: in vivo
# [1] = system: Japanese bulrush (Scirpus juncoides Roxb.); test: Test Example 1: herbicidal effect by soil application to paddy field; details: paddy field soil application; active ingredient 1,000 g per 1 hectare; wettable powder added dropwise to water surface the day after sowing; examined on the 21st day after application
# Outline: (§1)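 Plants were sown in flooded (3 cm) paddy soil and evaluated for herbicidal effect 21 days after soil application in a greenhouse.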
# [2] = system: early watergrass (Echinochloa oryzicola Vasing); test: as above; details: paddy field soil application; active ingredient 1,000 g per 1 hectare; wettable powder added dropwise to water surface the day after sowing; examined on the 21st day after application
# Outline: as §1
# [3] = system: heartshape false pickerelweed (Monochoria vaginalis (Burm.f.) C.Presl); test: as above; details: paddy field soil application; active ingredient 1,000 g per 1 hectare; wettable powder added dropwise to water surface the day after sowing; examined on the 21st day after application
# Outline: as §1
# [4] = system: barnyardgrass (Echinochloa crus-galli (L.) P. Beauv. var. crus-galli); test: Test Example 2: herbicidal effect by soil application to upland field; details: soil surface spray, upland field soil, 1,000 g active ingredient per hectare, 21st day after application
# Outline: (§2)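 Pots of field soil, seeds sown and soil-covered; wettable powder diluted in water sprayed on soil at 1,000 g a.i./ha (1,000 L/ha). Greenhouse-grown; herbicidal effect rated per standard at 21 days post-application.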
# [5] = system: green foxtail (Setaria viridis (L.) P. Beauv.); test: as above; details: soil surface spray, upland field soil, 1,000 g active ingredient per hectare, 21st day after application
# Outline: as §2
# [6] = system: slender amaranth (Amaranthus viridis L.); test: as above; details: soil surface spray, upland field soil, 1,000 g active ingredient per hectare, 21st day after application
# Outline: as §2
# [7] = system: velvetleaf (Abutilon theophrasti medicus); test: as above; details: soil surface spray, upland field soil, 1,000 g active ingredient per hectare, 21st day after application
# Outline: as §2
# [8] = system: barnyardgrass (Echinochloa crus-galli (L.) P. Beauv. var. crus-galli); test: Test Example 3: herbicidal effect by application to upland field (foliage treatment); details: 14th day after application; for herbicidal effect, Barnyardgrass: foliage treatment, 1,000 g active ingredient per 1 hectare, greenhouse
# Outline: (§3)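 Upland foliage test in greenhouse pots of field soil: seedlings sprayed at two weeks post-sowing with 1,000 g/ha active ingredient (wettable powder, 1,000 L water/ha). Scored 14 d after application.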
# [9] = system: green foxtail (Setaria viridis (L.) P. Beauv.); test: as above; details: 14th day after application; for herbicidal effect, Green Foxtail: foliage treatment, 1,000 g active ingredient per 1 hectare, greenhouse
# Outline: as §3
# [10] = system: slender amaranth (Amaranthus viridis L.); test: as above; details: 14th day after application; for herbicidal effect, Slender Amaranth: foliage treatment, 1,000 g active ingredient per 1 hectare, greenhouse
# Outline: as §3
# [11] = system: velvetleaf (Abutilon theophrasti medicus); test: as above; details: 14th day after application; for herbicidal effect, Velvetleaf: foliage treatment, 1,000 g active ingredient per 1 hectare, greenhouse
# Outline: as §3
# [12] = foliage treatment, plants grown two weeks, 1,000 g active ingredient per hectare
Structure (SMILES),"herbicidal effect, Scirpus juncoides Roxb. [1]","herbicidal effect, Echinochloa oryzicola Vasing [2]","herbicidal effect, Monochoria vaginalis (Burm. f.) C. Presl [3]","herbicidal effect (index), Barnyardgrass [4]","herbicidal effect (index), Green Foxtail [5]","herbicidal effect (index), Slender Amaranth [6]","herbicidal effect (index), Velvetleaf [7]","herbicidal effect, Barnyardgrass [8]","herbicidal effect, Green Foxtail [9]","herbicidal effect, Slender Amaranth [10]","herbicidal effect, Velvetleaf [11]","herbicidal effect (index), Barnyardgrass [8, 12]","herbicidal effect (index), Green Foxtail [9, 12]","herbicidal effect (index), Slender Amaranth [10, 12]","herbicidal effect (index), Velvetleaf [11, 12]"
O=C1CCCC(O)=C1C(=O)c1ccc(C(F)(F)F)n(NCC2CCCO2)c1=O (stereo not shown) [I-170],5 (90% or more of herbicidal effect and crop phytotoxicity),5 (90% or more of herbicidal effect and crop phytotoxicity),5 (90% or more of herbicidal effect and crop phytotoxicity),5 (90% or more of herbicidal effect and crop phytotoxicity),5 (90% or more of herbicidal effect and crop phytotoxicity),5 (90% or more of herbicidal effect and crop phytotoxicity),5 (90% or more of herbicidal effect and crop phytotoxicity),5 (90% or more of herbicidal effect and crop phytotoxicity),4 (70 to less than 90% of herbicidal effect and crop phytotoxicity),5 (90% or more of herbicidal effect and crop phytotoxicity),5 (90% or more of herbicidal effect and crop phytotoxicity),–,–,–,–
"O=C1CCCC(O)=C1C(=O)c1ccc(C(F)(F)F)n(-c2ccccc2)c1=O [I-72, 2-[1,2-dihydro-2-oxo-1-phenyl-6-(trifluoromethyl)pyridine-3-carbonyl]-3-hydroxy-2-cyclohexen-1-one]",5 (90% or more of herbicidal effect and crop phytotoxicity),5 (90% or more of herbicidal effect and crop phytotoxicity),5 (90% or more of herbicidal effect and crop phytotoxicity),5 (90% or more of herbicidal effect and crop phytotoxicity),5 (90% or more of herbicidal effect and crop phytotoxicity),5 (90% or more of herbicidal effect and crop phytotoxicity),5 (90% or more of herbicidal effect and crop phytotoxicity),–,–,–,–,5 (90% or more of herbicidal effect and crop phytotoxicity),5 (90% or more of herbicidal effect and crop phytotoxicity),5 (90% or more of herbicidal effect and crop phytotoxicity),5 (90% or more of herbicidal effect and crop phytotoxicity)
COC(Cn1c(C(F)(F)F)ccc(C(=O)C2=C(O)CCCC2=O)c1=O)OC [I-137],5 (90% or more of herbicidal effect and crop phytotoxicity),5 (90% or more of herbicidal effect and crop phytotoxicity),5 (90% or more of herbicidal effect and crop phytotoxicity),5 (90% or more of herbicidal effect and crop phytotoxicity),5 (90% or more of herbicidal effect and crop phytotoxicity),5 (90% or more of herbicidal effect and crop phytotoxicity),5 (90% or more of herbicidal effect and crop phytotoxicity),5 (90% or more of herbicidal effect and crop phytotoxicity),4 (70 to less than 90% of herbicidal effect and crop phytotoxicity),5 (90% or more of herbicidal effect and crop phytotoxicity),5 (90% or more of herbicidal effect and crop phytotoxicity),–,–,–,–
CC(C)n1ncc(C(=O)c2ccc(C(F)(F)F)n(C)c2=O)c1O [IV-219],5 (90% or more of herbicidal effect and crop phytotoxicity),5 (90% or more of herbicidal effect and crop phytotoxicity),5 (90% or more of herbicidal effect and crop phytotoxicity),5 (90% or more of herbicidal effect and crop phytotoxicity),3 (50 to less than 70% of herbicidal effect and crop phytotoxicity),5 (90% or more of herbicidal effect and crop phytotoxicity),5 (90% or more of herbicidal effect and crop phytotoxicity),5 (90% or more of herbicidal effect and crop phytotoxicity),3 (50 to less than 70% of herbicidal effect and crop phytotoxicity),5 (90% or more of herbicidal effect and crop phytotoxicity),5 (90% or more of herbicidal effect and crop phytotoxicity),–,–,–,–
Cn1ncc(C(=O)c2ccc(C(F)(F)F)n(-c3ccccc3)c2=O)c1O [IV-62],5 (90% or more of herbicidal effect and crop phytotoxicity),5 (90% or more of herbicidal effect and crop phytotoxicity),5 (90% or more of herbicidal effect and crop phytotoxicity),5 (90% or more of herbicidal effect and crop phytotoxicity),5 (90% or more of herbicidal effect and crop phytotoxicity),5 (90% or more of herbicidal effect and crop phytotoxicity),5 (90% or more of herbicidal effect and crop phytotoxicity),5 (90% or more of herbicidal effect and crop phytotoxicity),5 (90% or more of herbicidal effect and crop phytotoxicity),5 (90% or more of herbicidal effect and crop phytotoxicity),5 (90% or more of herbicidal effect and crop phytotoxicity),–,–,–,–
O=C(C1=C(O)C2CCC(C2)C1=O)c1ccc(C(F)(F)F)n(C2CC2)c1=O (stereo not shown) [III-5],5 (90% or more of herbicidal effect and crop phytotoxicity),5 (90% or more of herbicidal effect and crop phytotoxicity),5 (90% or more of herbicidal effect and crop phytotoxicity),5 (90% or more of herbicidal effect and crop phytotoxicity),5 (90% or more of herbicidal effect and crop phytotoxicity),5 (90% or more of herbicidal effect and crop phytotoxicity),5 (90% or more of herbicidal effect and crop phytotoxicity),5 (90% or more of herbicidal effect and crop phytotoxicity),5 (90% or more of herbicidal effect and crop phytotoxicity),5 (90% or more of herbicidal effect and crop phytotoxicity),5 (90% or more of herbicidal effect and crop phytotoxicity),–,–,–,–
CCCS(=O)(=O)Oc1c(C(=O)c2ccc(C(F)(F)F)n(CC(F)(F)F)c2=O)cnn1C [IV-10],5 (90% or more of herbicidal effect and crop phytotoxicity),5 (90% or more of herbicidal effect and crop phytotoxicity),5 (90% or more of herbicidal effect and crop phytotoxicity),5 (90% or more of herbicidal effect and crop phytotoxicity),5 (90% or more of herbicidal effect and crop phytotoxicity),5 (90% or more of herbicidal effect and crop phytotoxicity),5 (90% or more of herbicidal effect and crop phytotoxicity),5 (90% or more of herbicidal effect and crop phytotoxicity),4 (70 to less than 90% of herbicidal effect and crop phytotoxicity),5 (90% or more of herbicidal effect and crop phytotoxicity),4 (70 to less than 90% of herbicidal effect and crop phytotoxicity),–,–,–,–
CCCNn1c(C(F)(F)F)ccc(C(=O)C2=C(O)CCCC2=O)c1=O [I-159],5 (90% or more of herbicidal effect and crop phytotoxicity),5 (90% or more of herbicidal effect and crop phytotoxicity),5 (90% or more of herbicidal effect and crop phytotoxicity),5 (90% or more of herbicidal effect and crop phytotoxicity),5 (90% or more of herbicidal effect and crop phytotoxicity),5 (90% or more of herbicidal effect and crop phytotoxicity),5 (90% or more of herbicidal effect and crop phytotoxicity),5 (90% or more of herbicidal effect and crop phytotoxicity),5 (90% or more of herbicidal effect and crop phytotoxicity),5 (90% or more of herbicidal effect and crop phytotoxicity),5 (90% or more of herbicidal effect and crop phytotoxicity),–,–,–,–
